Results as given in US4468394A, “Cephalosporin compounds” (Eisai Co., Ltd., priority 1981, dated 1984).
≈ marks a conversion by molar mass, not a printed value. Counter-ions that a name gives are not always drawn.

Key:
[1] = Acute toxicity LD50 (mouse, oral); settings: in vivo
Excerpt: The acute toxicity values [LD50 (mouse, oral)] of the compounds of this invention are higher than 4 g/kg in the case of 7β-[D-2-(6,7-dihydroxy-4-oxo-4H-1-benzothiopyran-3-carboxamide)-2-(4- hydroxyphenyl)acetamide]-3-(1-carboxymethyl-5-tetrazolyl)thiomethyl-3-cephem-4-carboxylic acid and 7β-[D-2-(6,7-diacetoxy-1-ethyl-1,4-dihydro-4-oxoquinoline-3-carboxamide)-2-(4-hydroxyphenyl)acetamide]-3-(1-carboxymethyl-5-tetrazolyl)thiomethyl-3-cephem-4-carboxylic acid, as well as 7β-[D-2-(6,7-dihydroxy-2-oxo-2H-1-benzopyran-3-carboxamide)-2-(4-hydroxyphenyl)acetamide]-3-(1-carboxymethyl-5-tetrazolyl)thiomethyl-3-cephem-4-carboxylic acid and 7β-[D-2-(6,7-dihydroxy-2-oxo-2H-1-benzothiopyran-3-carboxamide)-2-(4- hydroxyphenyl)acetamide]-3-(1-carboxymethyl-5-tetrazolyl)thiomethyl-3-cephem-4-carboxylic acid.

Pseud. aeruginosa EP-069 = assay: Antibacterial activity (MIC), Pseud. aeruginosa EP-069; format: cell-based; settings: Pseudomonas aeruginosa
Excerpt: (§1) Tables 1 and 2 show the antibacterial activity (MIC, μg/mL) of the compounds of this invention.

Pseud. aeruginosa EP-067 = assay: Antibacterial activity (MIC), Pseud. aeruginosa EP-067; format: cell-based; settings: Pseudomonas aeruginosa
Excerpt: as §1

Pseud. aeruginosa EP-071 = assay: Antibacterial activity (MIC), Pseud. aeruginosa EP-071; format: cell-based; settings: Pseudomonas aeruginosa
Excerpt: as §1

Kleb. pneumoniae EK-6 = assay: Antibacterial activity (MIC), Kleb. pneumoniae EK-6; format: cell-based; settings: Klebsiella pneumoniae
Excerpt: as §1

Pseud. aeruginosa = settings: in words; cited from earlier work
Kleb. pneumoniae = settings: in words; cited from earlier work

SMILES | LD50 [1] [mg/kg] | MIC (Pseud. aeruginosa EP-069; EP069, Table 2) [µg/mL] | MIC (Pseud. aeruginosa EP-067; EP067, Table 2) [µg/mL] | MIC (Pseud. aeruginosa EP-071; EP071, Table 2) [µg/mL] | MIC (Kleb. pneumoniae EK-6; EK6, Table 2) [µg/mL] | MIC (Pseud. aeruginosa EP-069; EP069, Table 1) [µg/mL] | MIC (Pseud. aeruginosa EP-067; EP067, Table 1) [µg/mL] | MIC (Pseud. aeruginosa EP-071; EP071, Table 1) [µg/mL] | MIC (Kleb. pneumoniae EK-6; EK6, Table 1) [µg/mL] | antibacterial activity according to the known literature (Pseud. aeruginosa) | antibacterial activity according to the known literature (Kleb. pneumoniae)
O=C(O)Cn1nnnc1SCC1=C(C(=O)O)N2C(=O)[C@@H](NC(=O)[C@H](NC(=O)c3cc4cc(O)c(O)cc4oc3=O)c3ccc(O)cc3)[C@H]2SC1 [Example 21, 7β-[D-2-(6,7-Dihydroxy-2-oxo-2H-1-benzopyran-3-carboxamide)-2-(4-hydroxyphenyl)acetamide]-3-(1-carboxymethyl-5-tetrazolyl)thiomethyl-3-cephem-4-carboxylic acid] | > 4000 |  |  |  |  |  |  |  |  |  | 
CC(=O)OCC1=C(C(=O)O)N2C(=O)[C@@H](NC(=O)[C@H](NC(=O)c3cc4ccc(O)c(O)c4oc3=O)c3ccc(O)cc3)[C@H]2SC1 [Example 25, 7β-[D-2-(7,8-Dihydroxy-2-oxo-2H-1-benzopyran-3-carboxamide)-2-(4-hydroxyphenyl)acetamide]-3-acetoxymethyl-3-cephem-4-carboxylic acid] |  | 1.56 (≈ 2.49 µM) | 0.8 (≈ 1.28 µM) | 0.1 (≈ 0.16 µM) | 0.1 (≈ 0.16 µM) |  |  |  |  |  | 
CCn1cc(C(=O)N[C@@H](C(=O)N[C@@H]2C(=O)N3C(C(=O)O)=C(CSc4nnnn4CC(=O)O)CS[C@H]23)c2ccc(O)cc2)c(=O)c2cc(OC(C)=O)c(OC(C)=O)cc21 [Example 5, 7β-[D-2-(6,7-Diacetoxy-1-ethyl-1,4-dihydro-4-oxoquinoline-3-carboxamide)-2-(4-hydroxyphenyl)acetamide]-3-(1-carboxymethyl-5-tetrazolyl)thiomethyl-3-cephem-4-carboxylic acid] | > 4000 |  |  |  |  | 3.13 (≈ 3.74 µM) | 3.13 (≈ 3.74 µM) | 0.2 (≈ 0.239 µM) | 0.024 (≈ 0.0287 µM) |  | 
CC(=O)Oc1cc2cc(C(=O)N[C@@H](C(=O)N[C@@H]3C(=O)N4[C@@H]3SC(C)(C)[C@@H]4C(=O)O)c3ccccc3)c(=O)oc2cc1OC(C)=O [Example 14, 6β-[D-2-(6,7-Diacetoxy-2-oxo-2H-1-benzopyran-3-carboxamide)-2-phenylacetamide]penicillanic acid] |  | 1.56 (≈ 2.45 µM) | 1.56 (≈ 2.45 µM) | 0.2 (≈ 0.314 µM) | 0.2 (≈ 0.314 µM) |  |  |  |  |  | 
O=C(O)Cn1nnnc1SCC1=C(C(=O)O)N2C(=O)[C@@H](NC(=O)[C@H](NC(=O)c3cc4cc(O)c(O)cc4sc3=O)c3ccc(O)cc3)[C@H]2SC1 [Example 30] | > 4000 |  |  |  |  |  |  |  |  |  | 
CC(=O)OCC1=C(C(=O)O)N2C(=O)[C@@H](NC(=O)[C@H](NC(=O)c3cc4cc(OC(C)=O)c(OC(C)=O)cc4n(C)c3=O)c3ccc(O)cc3)[C@H]2SC1 [Example 35, 7β-[D-2-(6,7-Diacetoxy-1-methyl-1,2-dihydro-2-oxoquinoline-3-carboxamide)-2-(4-hydroxyphenyl)acetamide]-3-acetoxymethyl-3-cephem-4-carboxylic acid] |  | 1.56 (≈ 2.16 µM) | 3.13 (≈ 4.33 µM) | 0.2 (≈ 0.277 µM) | 0.8 (≈ 1.11 µM) |  |  |  |  |  | 
Cc1nnc(SCC2=C(C(=O)O)N3C(=O)[C@@H](NC(=O)[C@H](NC(=O)c4cc5cc(O)c(O)cc5[nH]c4=O)c4ccc(O)cc4)[C@H]3SC2)s1 [Example 34, 7β-[D-2-(6,7-Dihydroxy-1,2-dihydro-2-oxoquinoline-3-carboxamide)-2-(4-hydroxyphenyl)acetamide]-3-[5-methyl-2-(1,3,4-thiadiazolyl)]thiomethyl-3-cephem-4-carboxylic acid] |  | 3.13 (≈ 4.49 µM) | 3.13 (≈ 4.49 µM) | 0.4 (≈ 0.574 µM) | 0.4 (≈ 0.574 µM) |  |  |  |  |  | 
CCn1cc(C(=O)N[C@@H](C(=O)N[C@@H]2C(=O)N3C(C(=O)O)=C(CSc4nnc(C)s4)CS[C@H]23)c2ccc(O)cc2)c(=O)c2cc(O)c(O)cc21 [Example 6, 7β-[D-2-(6,7-Dihydroxy-1-ethyl-1,4-dihydro-4-oxoquinoline-3-carboxamide)-2-(4-hydroxyphenyl)acetamide]-3-[5-methyl-2-(1,3,4-thiadiazolyl)]thiomethyl-3-cephem-4-carboxylic acid] |  |  |  |  |  | 3.13 (≈ 4.32 µM) | 3.13 (≈ 4.32 µM) | 0.2 (≈ 0.276 µM) | 0.05 (≈ 0.069 µM) |  | 
O=C(O)Cn1nnnc1SCC1=C(C(=O)O)N2C(=O)[C@@H](NC(=O)[C@H](NC(=O)c3csc4cc(O)c(O)cc4c3=O)c3ccc(O)cc3)[C@H]2SC1 [Example 10, 7β-[D-2-(6,7-Dihydroxy-4-oxo-4H-1-benzothiopyran-3-carboxamide)-2-(4-hydroxyphenyl)acetamide]-3-(1-carboxymethyl-5-tetrazolyl)thiomethyl-3-cephem-4-carboxylic acid] | > 4000 |  |  |  |  | 3.13 (≈ 4.22 µM) | 3.13 (≈ 4.22 µM) | 0.2 (≈ 0.27 µM) | ≤ 0.012 |  | 
CC1(C)S[C@@H]2[C@H](NC(=O)[C@H](NC(=O)c3cc4ccccc4oc3=O)c3ccccc3)C(=O)N2[C@H]1C(=O)O [D(-)-α-(coumarin-3-carboxamide)benzylpenicillin, reference compound] |  | 12.5 (≈ 24 µM) | 12.5 (≈ 24 µM) | 1.56 (≈ 2.99 µM) | 12.5 (≈ 24 µM) |  |  |  |  | highest in antibacterial activity | highest in antibacterial activity
CO[C@@]1(NC(=O)[C@H](NC(=O)c2csc3cc(OC(C)=O)c(OC(C)=O)cc3c2=O)c2ccc(O)cc2)C(=O)N2C(C(=O)O)=C(COC(C)=O)CS[C@@H]21 [Example 11, 7β-[D-2-(6,7-Diacetoxy-4-oxo-4H-1-benzothiopyran-3-carboxamide)-2-(4-hydroxyphenyl)acetamide]-7α-methoxy-3-acetoxymethyl-3-cephem-4-carboxylic acid] |  |  |  |  |  | 3.13 (≈ 4.14 µM) | 3.13 (≈ 4.14 µM) | 0.2 (≈ 0.265 µM) | 0.024 (≈ 0.0318 µM) |  | 
Cn1nnnc1SCC1=C(C(=O)O)N2C(=O)[C@@H](NC(=O)[C@H](NC(=O)c3cc4cc(O)c(O)cc4oc3=O)c3ccc(O)cc3)[C@H]2SC1 [Example 20, 7β-[D-2-(6,7-Dihydroxy-2-oxo-2H-1-benzopyran-3-carboxamide)-2-(4-hydroxyphenyl)acetamide]-3-(1-methyl-5-tetrazolyl)thiomethyl-3-cephem-4-carboxylic acid] |  | 0.8 (≈ 1.17 µM) | 0.8 (≈ 1.17 µM) | 0.2 (≈ 0.293 µM) | 0.2 (≈ 0.293 µM) |  |  |  |  |  | 
CCn1cc(C(=O)N[C@@H](C(=O)N[C@@H]2C(=O)N3[C@@H]2SC(C)(C)[C@@H]3C(=O)O)c2ccccc2)c(=O)c2cc(OC(C)=O)c(OC(C)=O)cc21 [Example 2, 6β-[D-2-(6,7-Diacetoxy-1-ethyl-1,4-dihydro-4-oxoquinoline-3-carboxamide)-2-phenylacetamide]penicillanic acid] |  |  |  |  |  | 3.13 (≈ 4.71 µM) | 1.56 (≈ 2.35 µM) | 0.1 (≈ 0.15 µM) | 0.2 (≈ 0.301 µM) |  | 
CC(=O)Oc1cc2cc(C(=O)N[C@@H](C(=O)N[C@@H]3C(=O)N4[C@@H]3SC(C)(C)[C@@H]4C(=O)O)c3ccccc3)c(=O)sc2cc1OC(C)=O [Example 28, 6β-[D-2-(6,7-Diacetoxy-2-oxo-2H-1-benzothiopyran-3-carboxamide)-2-phenylacetamide]penicillanic acid] |  | 3.13 (≈ 4.79 µM) | 1.56 (≈ 2.39 µM) | 0.1 (≈ 0.153 µM) | 0.1 (≈ 0.153 µM) |  |  |  |  |  | 
CCn1cc(C(=O)N[C@@H](C(=O)N[C@@H]2C(=O)N3C(C(=O)O)=C(CSc4nnc(C)s4)CS[C@H]23)c2ccc(O)cc2)c(=O)c2cc(OC(C)=O)c(O)cc21 [Example 12, 7β-[D-2-(6-Acetoxy-7-hydroxy-1-ethyl-1,4-dihydro-4-oxoquinoline-3-carboxamide)-2-(4-hydroxyphenyl)acetamide]-3-[5-methyl-2-(1,3,4-thiadiazolyl)]thiomethyl-3-cephem-4-carboxylic acid sodium salt] |  |  |  |  |  | 3.13 | 3.13 | 0.2 | 0.024 |  | 
CC1(C)S[C@@H]2[C@H](NC(=O)[C@H](NC(=O)c3cnc4cccnc4c3O)c3ccccc3)C(=O)N2[C@H]1C(=O)O [D(-)-α-(4-hydroxy-1,5-naphthyridine-3-carboxamide)benzylpenicillin, reference compound] |  |  |  |  |  | 12.5 (≈ 24 µM) | 12.5 (≈ 24 µM) | 0.8 (≈ 1.53 µM) | 3.13 (≈ 6 µM) | highest antibacterial activity | 
O=C(O)Cn1nnnc1SCC1=C(C(=O)O)N2C(=O)[C@@H](NC(=O)[C@H](NC(=O)c3cc4ccc(O)c(O)c4oc3=O)c3ccc(O)cc3)[C@H]2SC1 [Example 27, 7β-[D-(7,8-Dihydroxy-2-oxo-2H-1-benzopyran-3-carboxamide)-2-(4-hydroxyphenyl)acetamide]-3-(1-carboxymethyl-5-tetrazolyl)thiomethyl-3-cephem-4-carboxylic acid] |  | 1.56 (≈ 2.15 µM) | 1.56 (≈ 2.15 µM) | 0.1 (≈ 0.138 µM) | ≤ 0.012 |  |  |  |  |  | 
